Patent US9120791B2, “Indolizine compounds, a process for their preparation and pharmaceutical compositions containing them” (LES LABORATOIRES SERVIER, priority 2012, dated 2015)
Where a name gives a salt, the structure may show the parent alone. Read-outs that look alike come from different tables or passages of the source.

Legend:
[1] = test system: RS4;11 leukaemia tumour line; assay: In vitro cytotoxicity (Microculture Tetrazolium Assay, 48 hours); type: cell-based; settings: RS4;11 cells, 48 hours exposure, MTT, concentration that inhibits cell viability by 50%, read-out: IC50 (nM) MTT RS4
Procedure: The cytotoxicity studies were carried out on the RS4;11 leukaemia tumour line.
The cells are distributed onto microplates and exposed to the test compounds for 48 hours.

Bcl-2 protein = Bcl-2 protein (Homo sapiens (Human), UniProt P10415); assay: Inhibition of Bcl-2 by the fluorescence polarisation technique; type: binding; settings: fluorescence polarisation test; concentration that inhibits fluorescence polarisation by 50%; read-out: IC50 (nM) Bcl-2 FP
Sequence of Bcl-2 protein (P10415 whole entry): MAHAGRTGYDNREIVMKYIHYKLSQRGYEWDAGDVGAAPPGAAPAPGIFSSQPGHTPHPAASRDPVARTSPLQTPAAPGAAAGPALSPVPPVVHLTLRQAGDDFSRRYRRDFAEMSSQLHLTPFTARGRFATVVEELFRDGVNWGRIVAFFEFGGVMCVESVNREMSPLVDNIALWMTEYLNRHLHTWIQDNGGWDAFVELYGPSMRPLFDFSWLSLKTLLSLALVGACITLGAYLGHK
Procedure: The fluorescence polarisation tests were carried out on microplates (384 wells). […] After incubation for 2 hours, the fluorescence polarisation is measured.

IC50 (Bcl-2 protein) | Compound | IC50 ([1]; Homo sapiens) | IC50 [1]
23 nM | COc1ccc(C(=O)N2Cc3ccccc3C[C@H]2CN2CCOCC2)c(-c2cc(C(=O)N(c3ccc(O)cc3)c3ccc4c(ccn4C)c3)c3n2CCCC3)c1 [Example 33, N-(4-Hydroxyphenyl)-3-{5-methoxy-2-[((3S)-3-(4-morpholinylmethyl)-3,4-dihydro-2(1H)-isoquinolinyl)carbonyl]phenyl}-N-(1-methyl-1H-indol-5-yl)-5,6,7,8-tetrahydro-1-indolizine carboxamide hydrochloride] | 12.2 nM | 
9 nM | N#Cc1ccc(N(C(=O)c2cc(-c3cc(Cl)ccc3C(=O)N3Cc4ccccc4C[C@H]3CN3CCOCC3)n3c2CCCC3)c2ccc(O)cc2)cc1 [Example 129, 3-(5-Chloro-2-{[(3S)-3-(morpholin-4-ylmethyl)-3,4-dihydroisoquinolin-2(1H)-yl]carbonyl}phenyl)-N-(4-cyanophenyl)-N-(4-hydroxyphenyl)-5,6,7,8-tetrahydroindolizine-1-carboxamide hydrochloride] | 46.7 nM | 
21 nM | Cn1ccc2cc(N(C(=O)c3cc(-c4cc(Cl)ccc4C(=O)N4Cc5ccccc5C[C@H]4CN4CCCOCC4)n4c3CCCC4)c3ccc(O)cc3)ccc21 [Example 46, 3-{5-Chloro-2-[((3S)-3-(1,4-oxazepan-4-ylmethyl)-3,4-dihydro-2(1H)-isoquinolinyl)carbonyl]phenyl}-N-(4-hydroxyphenyl)-N-(1-methyl-1H-indol-5-yl)-5,6,7,8-tetrahydro-1-indolizine carboxamide hydrochloride] | 56.8 nM | 
8 nM | O=C(c1cc(-c2cc(Cl)ccc2C(=O)N2Cc3ccccc3C[C@H]2CN2CCOCC2)n2c1CCCC2)N(c1ccc(O)cc1)c1ccccc1F [Example 115, 3-(5-Chloro-2-{[(3S)-3-(morpholin-4-ylmethyl)-3,4-dihydroisoquinolin-2(1H)-yl]carbonyl}phenyl)-N-(2-fluorophenyl)-N-(4-hydroxyphenyl)-5,6,7,8-tetrahydroindolizine-1-carboxamide hydrochloride] | 58.1 nM | 
58 nM | Cn1ccc2cc(N(C(=O)c3cc(-c4cc(C(F)(F)F)ccc4C(=O)N4Cc5ccccc5C[C@H]4CN4CCOCC4)n4c3CCCC4)c3ccc(O)cc3)ccc21 [Example 47, N-(4-Hydroxyphenyl)-N-(1-methyl-1H-indol-5-yl)-3-[2-[((3S)-3-(4-morpholinylmethyl)-3,4-dihydro-2(1H)-isoquinolinyl)carbonyl]-5-(trifluoromethyl)-phenyl]-5,6,7,8-tetrahydro-1-indolizine carboxamide hydrochloride] | 194 nM | 
22 nM | CS(=O)(=O)N1CCN(C[C@@H]2Cc3ccccc3CN2C(=O)c2cc3c(cc2-c2cc(C(=O)N(c4ccccc4)c4ccc(O)cc4)c4n2CCCC4)OCO3)CC1 [Example 123, N-(4-Hydroxyphenyl)-3-(6-{[(3S)-3-{[4-(methylsulphonyl)piperazin-1-yl]methyl}-3,4-dihydroisoquinolin-2(1H)-yl]carbonyl}-1,3-benzodioxol-5-yl)-N-phenyl-5,6,7,8-tetrahydroindolizine-1-carboxamide hydrochloride] | 92.1 nM | 
22 nM | CN1CCc2cc(N(C(=O)c3cc(-c4cc5c(cc4C(=O)N4Cc6ccccc6C[C@H]4CN4CCOCC4)OCO5)n4ccccc34)c3ccc(O)cc3)ccc21 [Example 61, N-(4-Hydroxyphenyl)-N-(1-methyl-2,3-dihydro-1H-indol-5-yl)-3-{6-[((3S)-3-(4-morpholinylmethyl)-3,4-dihydro-2(1H)-isoquinolinyl)carbonyl]-1,3-benzodioxol-5-yl}-1-indolizine carboxamide hydrochloride] | 14.5 nM | 
24 nM | Cn1ccc2cc(N(C(=O)c3cc(-c4cc5c(cc4C(=O)N4Cc6ccccc6C[C@H]4CN4CCOCC4)OCO5)n4c3CNCC4)c3ccc(O)cc3)ccc21 [Example 74, N-(4-Hydroxyphenyl)-N-(1-methyl-1H-indol-5-yl)-6-{6-[((3S)-3-(4-morpholinylmethyl)-3,4-dihydro-2(1H)-isoquinolinyl)carbonyl]-1,3-benzodioxol-5-yl}-1,2,3,4-tetrahydropyrrolo[1,2-a]pyrazine-8-carboxamide bis(hydrochloride)] | 241 nM | 
27 nM | O=C(c1cc(-c2cc3c(cc2C(=O)N2Cc4ccccc4C[C@H]2CN2CCOCC2)OCCO3)n2c1CCCC2)N(c1ccccc1)c1ccc(O)cc1 [Example 34, N-(4-Hydroxyphenyl)-3-{7-[((3S)-3-(4-morpholinylmethyl)-3,4-dihydro-2(1H)-isoquinolinyl)carbonyl]-2,3-dihydro-1,4-benzdioxin-6-yl}-N-phenyl-5,6,7,8-tetrahydro-1-indolizine carboxamide hydrochloride] | 65.8 nM | 
30 nM | O=C(c1cc(-c2cc3c(cc2C(=O)N2Cc4ccccc4C[C@H]2C[N+]2([O-])CCOCC2)OCO3)n2c1CCCC2)N(c1ccccc1)c1ccc(O)cc1 [Example 109, N-(4-Hydroxyphenyl)-3-(6-{[(3S)-3-[(4-oxidomorpholin-4-yl)methyl]-3,4-dihydroisoquinolin-2(1H)-yl]carbonyl}-1,3-benzodioxol-5-yl)-N-phenyl-5,6,7,8-tetrahydroindolizine-1-carboxamide] | 483 nM | 
17 nM | CN1CCN(C[C@@H]2Cc3ccccc3CN2C(=O)c2cc3c(cc2-c2cc(C(=O)N(c4ccc(O)cc4)c4ccc5c(ccn5C)c4)c4n2CCC4)OCO3)CC1 [Example 76, N-(4-Hydroxyphenyl)-N-(1-methyl-1H-indol-5-yl)-5-{6-[((3S)-3-[(4-methyl-1-piperazinyl)methyl]-3,4-dihydro-2(1H)-isoquinolinyl)carbonyl]-1,3-benzodioxol-5-yl}-2,3-dihydro-1H-pyrrolizine-7-carboxamide bis(hydrochloride)] | 49 nM | 
47 nM | CN1CC2(CC2)c2cc(N(C(=O)c3cc(-c4cc(Cl)ccc4C(=O)N4Cc5ccccc5C[C@H]4CN4CCOCC4)n4c3CCCC4)c3ccc(O)cc3)ccc21 [Example 45, 3-{5-Chloro-2-[((3S)-3-(4-morpholinylmethyl)-3,4-dihydro-2(1H)-isoquinolinyl)carbonyl]phenyl}-N-(4-hydroxyphenyl)-N-(1′-methyl-1′,2′-dihydrospiro[cyclopropane-1,3′-indol]-5′-yl)-5,6,7,8-tetrahydro-1-indolizine carboxamide] | 76.8 nM | 
14 nM | Cn1ncc2cc(N(C(=O)c3cc(-c4cc(F)ccc4C(=O)N4Cc5ccccc5C[C@H]4CN4CCOCC4)n4c3CCCC4)c3ccc(O)cc3)ccc21 [Example 44, 3-{5-Fluoro-2-[((3S)-3-(4-morpholinylmethyl)-3,4-dihydro-2(1H)-isoquinolinyl)carbonyl]phenyl}-N-(4-hydroxyphenyl)-N-(1-methyl-1H-indazol-5-yl)-5,6,7,8-tetrahydro-1-indolizine carboxamide hydrochloride] | 45 nM | 
12 nM | CN1CCN(C[C@@H]2Cc3ccccc3CN2C(=O)c2cc3c(cc2-c2cc(C(=O)N(c4ccc(O)cc4)c4ccc5c(ccn5C)c4)c4ccccn24)OCO3)CC1 [Example 57, N-(4-Hydroxyphenyl)-N-(1-methyl-1H-indol-5-yl)-3-{6-[((3S)-3-[(4-methyl-1-piperazinyl)methyl]-3,4-dihydro-2(1H)-isoquinolinyl)carbonyl]-1,3-benzodioxol-5-yl}-1-indolizine carboxamide bis(hydrochloride)] | 8.62 nM | 
7 nM | CN1CCN(C[C@@H]2Cc3ccccc3CN2C(=O)c2ccc(Cl)cc2-c2cc(C(=O)N(c3ccc(O)cc3)c3ccc4c(ccn4C)c3)c3n2CCCC3)CC1=O [Example 107, 3-(5-Chloro-2-{[(3S)-3-[(4-methyl-3-oxopiperazin-1-yl)methyl]-3,4-dihydroisoquinolin-2(1H)-yl]carbonyl}phenyl)-N-(4-hydroxyphenyl)-N-(1-methyl-1H-indol-5-yl)-5,6,7,8-tetrahydroindolizine-1-carboxamide hydrochloride] | 8.29 nM | 
15 nM | O=C(c1cc(-c2cc(Cl)ccc2C(=O)N2Cc3ccccc3C[C@H]2CN2CCOCC2)n2c1CCCC2)N(c1ccc(O)cc1)c1ccc(F)cc1 [Example 111, 3-(5-Chloro-2-{[(3S)-3-(morpholin-4-ylmethyl)-3,4-dihydroisoquinolin-2(1H)-yl]carbonyl}phenyl)-N-(4-fluorophenyl)-N-(4-hydroxyphenyl)-5,6,7,8-tetrahydroindolizine-1-carboxamide hydrochloride] | 81.5 nM | 
31 nM | CC(C)N1CCc2cc(N(C(=O)c3cc(-c4cc5c(cc4C(=O)N4Cc6ccccc6C[C@H]4CN4CCOCC4)OCO5)n4ccccc34)c3ccc(O)cc3)ccc21 [Example 64, N-(4-Hydroxyphenyl)-N-(1-isopropyl-2,3-dihydro-1H-indol-5-yl)-3-{6-[((3S)-3-(4-morpholinylmethyl)-3,4-dihydro-2(1H)-isoquinolinyl)carbonyl]-1,3-benzodioxol-5-yl}-1-indolizine carboxamide hydrochloride] | 23.3 nM | 

Compound | IC50 (Bcl-2 protein) | IC50 ([1]; Homo sapiens) | IC50 [1]
C[C@H]1COC[C@H](C)N1C[C@@H]1Cc2ccccc2CN1C(=O)c1cc2c(cc1-c1cc(C(=O)N(c3ccc(O)cc3)c3ccc4c(ccn4C)c3)c3n1CCCC3)OCO2 [Example 17, 3-{6-[((3S)-3-{[(3S,5S)-3,5-Dimethylmorpholinyl]methyl}-3,4-dihydro-2(1H)-isoquinolinyl)carbonyl]-1,3-benzodioxol-5-yl}-N-(4-hydroxyphenyl)-N-(1-methyl-1H-indol-5-yl)-5,6,7,8-tetrahydro-1-indolizine carboxamide hydrochloride] | 81 nM |  | 120 nM
